This test deals with T1, human cloned CHRM3 receptor (M3_CHO cells) (Homo sapiens, UniProt P20309).
T1 construct: expressed in transfected cells; host or cells: CHO-K1
In words: CHRM3 Ca++ Flux Assay (agonist mode, FDSS 7000EX). In kind it is cell-based. The settings on record: for Emax / M3 FDSS PA: Percent Activity measured to EC100 of Carbachol; for Emax: read-out: M3 FDSS PA; for EC50: agonist mode, geometric mean if tested more than once, read-out: M3 FDSS EC50. Put shortly: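 CHO-K1 cells stably expressing human M3 or M5 receptor were dye-loaded for at least 1 h in HBSS with 20 mM HEPES and 2.5 mM probenecid, then given 11-point compound doses in triplicate.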

A value given as a limit tells only on which side of the number the result lay.

T1 sequence (P20309 whole entry): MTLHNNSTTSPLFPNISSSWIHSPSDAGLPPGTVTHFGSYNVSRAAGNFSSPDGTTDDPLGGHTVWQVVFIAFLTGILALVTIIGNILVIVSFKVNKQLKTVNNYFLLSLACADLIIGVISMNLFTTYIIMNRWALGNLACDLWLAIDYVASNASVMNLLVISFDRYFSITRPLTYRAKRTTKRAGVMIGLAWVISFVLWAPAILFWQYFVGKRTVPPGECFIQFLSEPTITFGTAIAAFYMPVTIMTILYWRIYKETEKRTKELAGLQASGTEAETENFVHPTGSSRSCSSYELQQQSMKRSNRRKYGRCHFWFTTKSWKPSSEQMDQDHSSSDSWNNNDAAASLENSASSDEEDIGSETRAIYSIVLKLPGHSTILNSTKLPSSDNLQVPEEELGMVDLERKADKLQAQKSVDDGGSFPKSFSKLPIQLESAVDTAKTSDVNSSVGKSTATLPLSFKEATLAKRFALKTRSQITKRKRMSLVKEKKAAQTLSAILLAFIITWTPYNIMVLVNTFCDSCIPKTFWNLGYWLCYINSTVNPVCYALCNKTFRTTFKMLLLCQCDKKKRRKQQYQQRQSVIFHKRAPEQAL

For the compound `COc1ccccc1C1CCN([C@@H]2CCC3(C2)CN(c2ccnnc2)C3)CC1` [Example 5S, (R)-6-(4-(2-methoxyphenyl)piperidin-1-yl)-2-(pyridazin-4-yl)-2-azaspiro[3.4]octane], the Emax came to 0% and the EC50 was greater than 25 µM.
On to `Cc1nc(COc2ccccc2C2CCN([C@@H]3CCC4(C3)CN(C(=O)C3(F)CC3)C4)CC2)no1` (single isomer, unassigned) [Example 7X, (R)-(1-fluorocyclopropyl)(6-(4-(2-((5-methyl-1,2,4-oxadiazol-3-yl)methoxy)phenyl)piperidin-1-yl)-2-azaspiro[3.4]octan-2-yl)methanone or (S)-(1-fluorocyclopropyl)(6-(4-(2-((5-methyl-1,2,4-oxadiazol-3-yl)methoxy)phenyl)piperidin-1-yl)-2-azaspiro[3.4]octan-2-yl)methanone], for which the “M3 FDSS PA” value is given as 0% and the EC50 is greater than 25 µM.
For `O=C1CCCN1CCOc1ccccc1C1CCN([C@@H]2CCC3(C2)CN(C(=O)C2(F)CC2)C3)CC1.O=CO` (single isomer, unassigned) [Example 7P, (R)-1-(2-(2-(1-(2-(1-fluorocyclopropane-1-carbonyl)-2-azaspiro[3.4]octan-6-yl)piperidin-4-yl)phenoxy)ethyl)pyrrolidin-2-one formate salt or (S)-1-(2-(2-(1-(2-(1-fluorocyclopropane-1-carbonyl)-2-azaspiro[3.4]octan-6-yl)piperidin-4-yl)phenoxy)ethyl)pyrrolidin-2-one formate salt] the same measures were 0% and greater than 25 µM.
Regarding `Fc1ccc(OC2CC3(COC3)C2)c(C2CCN([C@@H]3CCC4(C3)CN(c3nnco3)C4)CC2)c1` [Example 1B, (R)-2-(6-(4-(2-((2-oxaspiro[3.3]heptan-6-yl)oxy)-5-fluorophenyl)piperidin-1-yl)-2-azaspiro[3.4]octan-2-yl)-1,3,4-oxadiazole], the Emax came to 0% and the EC50 was greater than 25 µM.
The like results for `COc1ccccc1C1CCN([C@@H]2CCC3(C2)CN(c2nccnc2C(F)(F)F)C3)CC1` [Example 5I, (R)-6-(4-(2-methoxyphenyl)piperidin-1-yl)-2-(3-(trifluoromethyl)pyrazin-2-yl)-2-azaspiro[3.4]octane] were, in that order, 0% and greater than 25 µM.
Turning to `O=C(N1CC2(CC[C@@H](N3CCC(c4ccccc4OC(F)(F)F)CC3)C2)C1)C1(F)CC1` (single isomer, unassigned) [Example 9B, (R)-(1-fluorocyclopropyl)(6-(4-(2-(trifluoromethoxy)phenyl)piperidin-1-yl)-2-azaspiro[3.4]octan-2-yl)methanone or (S)-(1-fluorocyclopropyl)(6-(4-(2-(trifluoromethoxy)phenyl)piperidin-1-yl)-2-azaspiro[3.4]octan-2-yl)methanone], the “M3 FDSS PA” value was found to be 0% and the EC50 was greater than 25 µM.
For the compound `Cc1coc(N2CC3(CC[C@@H](N4CCC(c5ccccc5OCC(C)(C)O)CC4)C3)C2)n1` [Example 3O, (R)-2-methyl-1-(2-(1-(2-(4-methyloxazol-2-yl)-2-azaspiro[3.4]octan-6-yl)piperidin-4-yl)phenoxy)propan-2-ol], the Emax was 0% and the EC50 was greater than 25 µM.
Take `COc1ccccc1C1CCN([C@@H]2CCC3(C2)CN(c2ncns2)C3)CC1` (single isomer, unassigned) [Example 10Q, (R)-5-(6-(4-(2-methoxyphenyl)piperidin-1-yl)-2-azaspiro[3.4]octan-2-yl)-1,2,4-thiadiazole or (S)-5-(6-(4-(2-methoxyphenyl)piperidin-1-yl)-2-azaspiro[3.4]octan-2-yl)-1,2,4-thiadiazole]: the “M3 FDSS PA” value amounted to 0% and the 50% effective concentration (EC50) was greater than 25 µM.

For orientation: EC50 means the concentration giving half of the maximal effect.

The values above are taken from patent publication US12122761B2, “2-azaspiro[3.4]octane derivatives as M4 agonists” (NOVARTIS AG, priority 2019, dated 2024).
